Patent US5409898A, “Compositions and methods for treating infections caused by organisms sensitive to β-lactam antibiotics” (priority 1994, dated 1995)
Values after ≈ are worked out from the molar mass of the structure shown.

Tests used:
[1] = test system: E. coli ATCC 25922; assay: Bactericidal assay in GVB++ buffer (magainin 2 / cefepime); format: cell-based, Escherichia coli; conditions: cefepime alone (1/4 MIC)
Procedure: FIG. 1 illustrates magainin 2 killing of untreated and cefepime altered E. coli in buffer. […] Cells were diluted as described in Section 6.1.5 and added to tubes containing GVB^++ buffer, with or without cefepime, and varying concentrations of magainin 2 peptide (indicated on the X axis). […] After 180 minutes at 37° C., bacterial survival was determined by measuring the number of colony forming units (cfu) in each tube. Bacterial counts were determined in triplicate. For each magainin concentration: Log Kill=log10 cfu no magainin-log10 cfu containing magainin.
The total reaction mixture was 0.25 ml.

[2] = test system: E. coli ATCC 25922; assay: Serum bactericidal assay in 40% pooled normal human serum (magainin 2 with antibiotics); format: cell-based, Escherichia coli; conditions: 1/32, 1/16, 1/8 MIC antibiotic; 200 μg/ml magainin 2; 40% pooled normal human serum
[3] = test system: A645AP (pBR322); assay: Determination of the minimum inhibitory concentration (MIC), A645AP (pBR322); format: cell-based; conditions: Escherichia coli; antibiotic resistant strain A645AP (pBR322)
Procedure: (§1) The MIC represents the lowest concentration of antimicrobial agent at which complete inhibition occurs. MIC's were determined by the microdilution plate dilution method using AMH (Manual of Clinical Microbiology, Fourth Edition, Lennette, E. H. Ed. in Chief, ASM. 1985. pps 972-977). At least three different determinations were performed with each antibiotic for each strain.
(§2) MIC's were determined by the microdilution plate dilution method using AMH (Manual of Clinical Microbiology, Fourth Edition, Lennette, E. H. Ed. in Chief, ASM. 1985. pps 972-977). At least three different determinations were performed with each antibiotic for each strain.

[4] = test system: M009; assay: Determination of the minimum inhibitory concentration (MIC), M009; format: cell-based, Pseudomonas aeruginosa; conditions: antibiotic resistant strain M009
Procedure: as §1, §2

[5] = test system: E. coli H16; assay: In vivo protection of neutropenic mice from lethal E. coli H16 infection (magainin 2, C-13 peptide, cefepime, amikacin); conditions: neutropenic mice, 2×10^4 E. coli H16 i.p.; two i.m. injections at 1 and 3.5 hr: 1 mg/mouse magainin 2, 0.1 mg/kg cefepime; at least 10 days
Procedure: The ability of magainin and cefepime combinations to protect mice from a lethal infection of E. coli was examined. Mice were made neutropenic by injection of Cytoxan and then challenged with E. coli. Mice were then divided into four different groups: (1) mice that were given no further treatment; (2) were given magainin 2 or C-13 peptide only; (3) were given cefepime only and (4) were given a combination of magainin 2 or C-13 peptide and cefepime. […] When amikacin, an aminoglycoside, was tested in similar experiments, no in vitro bactericidal activity or in vivo protection was found.
Mice were made neutropenic five days prior to bacterial challenge. Neutropenia was induced by subcutaneous injection of 250 mg/kg Cytoxan (cyclophosphamide). The mice were challenged with 2×10^4 E. coli H16. Challenge was by intraperitoneal injection. […] The survival of the mice was monitored for a period of at least 10 days

[6] = test system: E. coli H16; assay: In vivo protection of neutropenic mice from systemic E. coli H16 infection (C-13 peptide analogs)
Source text: The ability of C-13 peptide analogs and cefepime combinations to protect mice from a lethal infection of E. coil was examined. Mice were made neutropenic by an injection of cyclophosphamide and then challenged with E. coli. Mice were then divided into four groups: (1) mice that were given PBS; (2) were given C-13 peptide analogs only; (3) were given cefepime only; and (4) were given a combination of C-13 peptide analogs and cefepime.
(§3) Male CrL:CF1 mice were made neutropenic five days prior to bacterial challenge. Neutropenia was induced by subcutaneous injection of 250 mg/kg Cytoxan (cyclophosphamide). The mice were challenged with either 2×10^4 E. coli H16 (Table 4) or 5×10^4 A645AP by intraperitoneal injection. Mice were divided into four treatment groups: (1) PBS; (2) C-13 peptide analog (15 mg/kg); (3) cefepime (0.1 mg/kg); (4) a combination treatment of cefepime and C-13 peptide analog (0.1 mg/kg cefepime and 15 mg/kg C-13 peptide analog) that were combined prior to injection. All injections were made in PBS (0.2 ml) and were administered intramuscularly with each injection in separate legs, one and 3.5 hours after bacterial challenge. The survival of the mice was monitored for ten days and the results analyzed by the Fisher Exact test.

[7] = test system: non K1 E. coli strain A645AP; assay: In vivo protection of neutropenic mice challenged with E. coli A645AP; conditions: neutropenic mice challenged with E. coli A645AP (5.0×10^4 organisms)
Procedure: as §3
C-13 peptide analog G was also examined in neutropenic mice challenged with the non K1 E. coli strain A645AP (5.0×10^4 organisms). When mice were examined for survival after bacterial challenge the following results were obtained: in group 1, where only PBS was administered 3 out of 20 mice survived; in group 2, where only G was administered, 0 out of 15 survived; in group 3 where cefepime was administered 3 out of 20 survived; and in group 4, where both G and cefepime were administered 8 out of 15 survived.

[8] = neutropenic mice, 2×10^4 E. coli H16 i.p., peptide 15 mg/kg, cefepime 0.1 mg/kg i.m. at one and 3.5 hours, ten days

CO/N=C(\C(=O)N[C@@H]1C(=O)N2C(C(=O)[O-])=C(C[N+]3(C)CCCC3)CS[C@H]12)c1csc(N)n1 [cefepime]
log10 kill [1]: Less than 0.3 log10 | synergy of antibiotic with magainin 2 [2]: synergistic | MIC [3]: 1 µg/mL (≈ 2.08 µM) | MIC [4]: 64 ug/MI | mice survived (out of total) [5]: 1 out of 20 | protection from systemic E. coli H16 infection ([6]; Fisher Exact test): failed to provide a significant level of protection | % Survival [6, 8]: 12% | Number--Survived/Total [6, 8]: 3/25 | mice survived (out of total) [7]: 3 out of 20
